Laboratory results from patent US7491819B1 (priority 2004, dated 2009).
Read-outs that look alike come from different tables or passages of the source.

Experiments:
NL36G virus = test system: NL36G virus
Experimental: Virus and cell lines. The T-cell line, MT-2, was obtained through the AIDS Research and Reference Reagent Program. MT-2 cells were sub-cultured twice a week in RPMI 1640 medium supplemented with 10% fetal bovine serum, 2 mM L-glutamine, and 10 mM HEPES buffer pH 7.5. The HIV-1303B virus is a molecular clone derived from the NL4-3 strain of HIV-1 that was obtained from the NIH AIDS Research and Reference Reagent Program. For combinations with enfuvirtide, the NL36G virus was used. […] Virus stocks were made by transfecting 293T cells with a proviral DNA clone using LipofectAMINE PLUS (Invitrogen), according to the manufacturer's instructions. Three days post-transfection, virus was harvested and passaged once in MT-2 cells before titration in MT-2 cells.
Chemicals. Example 19, atazanavir, didanosine, stavudine, efavirenz, and enfuvirtide (T-20) were synthesized by Bristol-Myers Squibb using published or known reactions. […] Tenofovir was tested as tenofovir disopoxil fumarate. Zidovudine and zalcitabine were purchased from Sigma, and emtricitabine from Moravek Biochemicals.
Drug Susceptibility and Cytotoxicity Assays. For drug susceptibility assays, MT-2 cells were infected with HIV-1 303B (or NL36G), at an MOI of 0.001, and seeded into 96-well microtiter plates (2.5×10^5 cells/ml) containing serial dilutions of test compounds. […] Each drug ratio consisted of an array of 3-fold serial dilutions, and was performed with eight or more replicas on separate multi-well plates. HIV infected cells were incubated at 37° C. in 5% CO2, and on day five post-infection, the extent of virus replication was measured by determining cell viability using the CellTiter 96 Aqueous Non-Radioactive Cell Proliferation Assay (Promega). […] Cytotoxicity assays were performed in parallel with the combination experiments. Here, uninfected cells were exposed to the same drug combinations, and assayed after five days for cell viability using the MTS assay.
Analysis of Drug Combination Effects. For determination of combination index (CI) values, drugs were diluted in a fixed ratio and multiple ratios were analyzed. The drug serial dilutions spanned a range of concentrations near the EC50 value of each compound, so that equivalent antiviral activities could be compared. The normalized responses from each therapy are fit to the four-parameter logistic model with a common minimum and maximum across all therapies. Conceptually, this equation can be written as
In this equation, Fa stands for “fraction affected,” and represents the fraction of the viral load that has been inactivated. […] The EC50, represented by the Ci in the above equation, is the drug concentration that is expected to reduce the amount of virus by 50%, and the Bi are the parameters that reflects the slope of the concentration-response curve. For this assay, A is the bottom plateau common to all curves, D is the common top plateau, Bj is the “slope” parameter for the jth therapy, and Cj is the concentration that produces an effect equal to the average of A and D for the jth therapy. Therapies 1 and 2 correspond to mono therapies 1 and 2, respectively. Therapies 3, 4, and 5 correspond to the three combination therapies. EC50 values for each drug were determined from the single drug experiments, using the above equation. The equation was fit using a nonlinear regression routine (Proc Nlin) in PC SAS version 8.2 (SAS Institute Inc.).
To assess antiviral effects of different drug combination treatments, combination indices (CIs) were calculated according to Chou and Rideout. The combination index was computed as
In this equation [Dm]1 and [Dm]2 are the concentrations of drugs that would individually produce a specific level of effect, while [D]1 and [D]2 are the concentrations of drugs in combination that would produce the same level of effect.
Theoretically, additivity is implied if the CI is equal to one, synergy if the CI is less than one, and antagonism if the CI is greater than one.

MT-2 cells = experiment: Cytotoxicity assay of the drug combinations, uninfected cells, MTS; type: cell-based; conditions: highest concentrations tested, five days
Experimental: Drug Susceptibility and Cytotoxicity Assays. For drug susceptibility assays, MT-2 cells were infected with HIV-1 303B (or NL36G), at an MOI of 0.001, and seeded into 96-well microtiter plates (2.5×10^5 cells/ml) containing serial dilutions of test compounds. […] Each drug ratio consisted of an array of 3-fold serial dilutions, and was performed with eight or more replicas on separate multi-well plates. HIV infected cells were incubated at 37° C. in 5% CO2, and on day five post-infection, the extent of virus replication was measured by determining cell viability using the CellTiter 96 Aqueous Non-Radioactive Cell Proliferation Assay (Promega). Maximal cell protection was typically seen in samples treated with the highest drug concentration. In the cell viability assay, the tetrazolium compound MTS (3-(4,5-dimethylthiazol-2-yl)-5-(3-carboxymethoxyphenyl)-2-4-sulphophenyl-2H-tetrazolium) is added to cells, whereby enzymes in metabolically active cells convert it into a colored formazan product, which is quantitated by reading absorbance at 490 nm. Cytotoxicity assays were performed in parallel with the combination experiments. Here, uninfected cells were exposed to the same drug combinations, and assayed after five days for cell viability using the MTS assay.

[1] = in combination with Example 19, EC50 ratio 1:1 (molar 5:44)
[2] = in combination with Example 19, EC50 ratio 1:2.5 (molar 1:22)
[3] = in combination with Example 19, EC50 ratio 2.5:1 (molar 25:88)

enfuvirtide
overall antiviral effect of the two-drug combination with Example 19 (in words) (NL36G virus; classification from combination indices): synergistic
Combination Indices at 50% HIV Inhibition (Confidence Interval) (NL36G virus; [1]): 0.68 (0.59, 0.77)
Combination Indices at 75% HIV Inhibition (Confidence Interval) (NL36G virus; [1]): 0.59 (0.48, 0.70)
Combination Indices at 90% HIV Inhibition (Confidence Interval) (NL36G virus; [1]): 0.52 (0.37, 0.67)
Combination Indices at 50% HIV Inhibition (Confidence Interval) (NL36G virus; [2]): 0.75 (0.65, 0.85)
Combination Indices at 75% HIV Inhibition (Confidence Interval) (NL36G virus; [2]): 0.60 (0.49, 0.70)
Combination Indices at 90% HIV Inhibition (Confidence Interval) (NL36G virus; [2]): 0.48 (0.34, 0.61)
Combination Indices at 50% HIV Inhibition (Confidence Interval) (NL36G virus; [3]): 0.76 (0.65, 0.86)
Combination Indices at 75% HIV Inhibition (Confidence Interval) (NL36G virus; [3]): 0.73 (0.59, 0.86)
Combination Indices at 90% HIV Inhibition (Confidence Interval) (NL36G virus; [3]): 0.71 (0.50, 0.92)
EC50 (NL36G virus; single drug, MT-2 cells, MOI 0.001, day five, MTS cell viability): 61 nM
cytotoxicity of the drug combinations with Example 19 (MT-2 cells): No significant cytotoxicity
